These are literature values, as cited in US20170216178A1, “Cosmetic or Dermatological Composition Containing Retinaldehyde and DNA” (GALEPHAR PHARMACEUTICAL RESEARCH, INC., priority 2016, published 2017).

One data set has as its system P. acnes. To be noted: against P. acnes.
In the next data set the test system is skin cancer. To be noted: mice.
In a further data set the test system is comedones. To be noted: topical; compared with retinoic acid (tretinoin); rhino mouse model.
The subject of a further data set is skin. To be noted: topical; compared with retinoids.

Turning to `O=C(O)CCCCCCCC(=O)O` [azelaic acid], the intra-follicular antibacterial activity entry in the data set on P. acnes was “showed an intra-follicular antibacterial activity”. Consider `O=C(OOC(=O)c1ccccc1)c1ccccc1` [benzoyl peroxide], for which, in the data set on skin cancer, the “potential for the development of skin cancer” value is on record as “may increase the potential for the development of skin cancer”. Turning to `CC1=C(/C=C/C(C)=C/C=C/C(C)=C/C=O)C(C)(C)CCC1` [retinaldehyde], in the data set with comedones, the comedolytic action entry is listed as “identical to that of retinoic acid”. For the same molecule, the skin tolerance result in the data set with skin is “significantly higher skin tolerance”.
